Laboratory results from patent US20240117405A1, “COLORIMETRIC BIOSENSOR, PREPARATION METHOD THEREOF, AND ANTIBIOTIC SUSCEPTIBILITY TESTING METHOD USING THE SAME” (INHA UNIVERSITY RESEARCH AND BUSINESS FOUNDATION, priority 2022, published 2024).

Tested on: methicillin-resistant Staphylococcus Aureus (MRSA)
Assay: Antibiotic susceptibility test using encapsulated colorimetric biosensor
Assay type: cell-based
Conditions: MRSA 10^6 CFU/mL, 37° C.; for time until color change (blue->red) of the colorimetric biosensor: photographed up to 15 hours
Protocol: An antibiotic susceptibility test was performed on the colorimetric biosensor in encapsulated form prepared in Example 1, and the results are shown in FIG. 5.
Specifically, an encapsulated colorimetric biosensor was prepared from Example 1 and introduced into wells containing 2 and 4 μg/mL of ampicillin antibiotics (See FIGS. 5B and 5C) and 0.25, 2 and 4 μg/mL of vancomycin antibiotics (See FIGS. 5D, 5E, and 5F). Further, for the antibiotic susceptibility test, methicillin-resistant Staphylococcus Aureus (MRSA) bacteria, which are resistant to ampicillin and susceptible to vancomycin, were injected into each well at an amount of 10^6 CFU/mL. For comparative experiments, wells containing only the colorimetric biosensor and bacteria (See FIG. 5A) and wells containing only the colorimetric biosensor (See FIG. 5G) were also prepared. In order to induce the growth of MRSA and the color change of the biosensor accordingly, they were cultured at a temperature of 37° C., and each well plate was photographed at 0, 5, 6, 7, 9, 12, 13 and 15 hours to compare the color change.

Structure (SMILES) | time until color change (blue->red) of the colorimetric biosensor (2 μg/mL antibiotic) | time until color change (blue->red) of the colorimetric biosensor (4 μg/mL antibiotic) | susceptibility or resistance of MRSA to the antibiotic as determined by biosensor color change | time until color change (blue->red) of the colorimetric biosensor (0.25 μg/mL antibiotic) [h] | concentration from which MRSA shows susceptibility (no color change) (tested 0.25, 2 and 4 μg/mL) [µg/mL]
CC1(C)S[C@@H]2[C@H](NC(=O)[C@H](N)c3ccccc3)C(=O)N2[C@H]1C(=O)O [ampicillin] | 9 h | 13 h | resistance |  | 
CN[C@H](CC(C)C)C(=O)N[C@H]1C(=O)N[C@@H](CC(N)=O)C(=O)N[C@H]2C(=O)N[C@H]3C(=O)N[C@H](C(=O)N[C@H](C(=O)O)c4cc(O)cc(O)c4-c4cc3ccc4O)[C@H](O)c3ccc(c(Cl)c3)Oc3cc2cc(c3O[C@@H]2O[C@H](CO)[C@@H](O)[C@H](O)[C@H]2O[C@H]2C[C@](C)(N)[C@H](O)[C@H](C)O2)Oc2ccc(cc2Cl)[C@H]1O [vancomycin] | no color change was observed | no color change was observed | susceptibility | 9 | 2
